The record followed here is patent US9708314B2, “Heterocyclic amide compound” (NISSAN CHEMICAL INDUSTRIES, LTD., priority 2013, dated 2017).

Common to all, as to assay type: in vivo
One data set has as its system Scirpus juncoides. As to the kind of experiment: Test Example 2: herbicidal activity, application during weed generation in submerged conditions. The note with it: Eighteenth Table. A digest of the protocol: (§1)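 Seeds were sown together in alluvial soil kept under 4 cm of water and grown at 25 °C to 30 °C. Once plants reached the one- to two-leaf stage, the diluted emulsion was applied to the water surface at a predetermined g/ha amount, and effects were rated 0–5 after three weeks.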

The test system of the next data set is Monochoria vaginalis. The data set is described as above. The note with it: Eighteenth Table. A digest of the protocol: as §1
For data set [1], the system named is Echinochloa oryzacola Vasing. Described as above. The note with it: Eighteenth Table. A digest of the protocol:
as §1

A further data set relates to Stellaria media. As to the kind of experiment: Test Example 4: herbicidal effect by application to foliage (diluvial soil, plastic box). The settings on record: application to foliage; for P (Stellaria media) herbicidal effect: application herbicide amount 320 g/ha. A digest of the protocol: (§2)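 Greenhouse plants (25° C. to 30° C., 14 d, diluvial soil) receive a foliar spray of water-diluted emulsifiable formulation at defined g/ha. Grading after 3 weeks uses a six-step herbicidal-ratio scale, with 4 covering 70% to <90% and 1 covering 5% to <20%.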

The next data set deals with Amaranthus retroflexus. Described as above. The settings on record: application to foliage; for N (Amaranthus retroflexus) herbicidal effect: application herbicide amount 320 g/ha. A digest of the protocol: as §2
Data set [2] concerns directly sowed Oryza sativa. Briefly: Test Example 3: effect on crop by application to foliage (Wagner pot, water depth 0.1-0.5 cm). The note with it: Nineteenth Table; for b (directly sowed Oryza sativa) effect on crop grade: application herbicide amount 320 g/ha. A digest of the protocol: (§3)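 Seeds were sown in alluvial soil in Wagner pots, grown for 14 days at 25–30 °C, then sprayed uniformly on foliage with the emulsified compound diluted to a given rate per hectare. Injury was graded three weeks after treatment from 0 (≤5%) to 5 (≥90%).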

The next data set concerns Cyperus difformis. As to the kind of experiment: Test Example 3: herbicidal effect by application to foliage (Wagner pot, water depth 0.1-0.5 cm). The settings on record: Nineteenth Table; for E (Cyperus difformis) herbicidal ratio grade: application herbicide amount 320 g/ha. A digest of the protocol:
as §3

For data set [3], the system named is Echinochloa crus-galli var. crus-galli. The data set is described as above. The settings on record: Nineteenth Table; for H (Echinochloa crus-galli var. crus-galli) herbicidal ratio grade: application herbicide amount 320 g/ha. A digest of the protocol: as §3
Another data set has as its system Leptochloa chinensis. The data set is described as above. The note with it: Nineteenth Table; for D (Leptochloa chinensis) herbicidal ratio grade: application herbicide amount 320 g/ha. A digest of the protocol: as §3
Setting [4] is: application herbicide amount 141 g/ha.
Setting [5] is: application to foliage, application herbicide amount 141 g/ha.
Where [6] appears, read: application herbicide amount 320 g/ha.

For the compound `CCN(C)c1nnc2c(C(=O)Nc3nnnn3C)ccc(C(F)(F)F)n12` [2-088], the “B (Scirpus juncoides) herbicidal ratio grade” value with Scirpus juncoides (setting [4]) was 3 (Herbicidal ratio of 40% or more and less than 70%). The “C (Monochoria vaginalis) herbicidal ratio grade” value with Monochoria vaginalis (setting [4]) is 4 (Herbicidal ratio of 70% or more and less than 90%). Also, in [1] (setting [4]), the “A (Echinochloa oryzicola Vasing.) herbicidal ratio grade” value is 4 (Herbicidal ratio of 70% or more and less than 90%). Also, the “herbicidal effect, P (Stellaria media)” value in the data set on Stellaria media (141 g/ha) is given as 5 (Herbicidal ratio of 90% or more (almost completely withered)). Moreover, in the data set with Amaranthus retroflexus (141 g/ha), the “herbicidal effect, N (Amaranthus retroflexus)” value was 5 (Herbicidal ratio of 90% or more (almost completely withered)). In addition, the “b (effect on crop grade)” value in data set [2] (setting [5]) is 3 (Herbicidal ratio of 40% or more and less than 70%). The “E (herbicidal effect grade)” value with Cyperus difformis (setting [5]) is 4 (Herbicidal ratio of 70% or more and less than 90%). Besides, the “H (herbicidal effect grade)” value in data set [3] (setting [5]) is given as 5 (Herbicidal ratio of 90% or more (almost completely withered)). For the same compound, in the data set with Leptochloa chinensis (setting [5]), the “D (herbicidal effect grade)” value is given as 5 (Herbicidal ratio of 90% or more (almost completely withered)).
For the compound `COc1ccccc1-c1nnc2c(C(=O)Nc3nnc(C)o3)ccc(C(F)(F)F)n12` [1-047], in the data set with Scirpus juncoides (setting [6]), the “B (Scirpus juncoides) herbicidal ratio grade” value was 2 (Herbicidal ratio of 20% or more and less than 40%). For the same compound, in the data set on Monochoria vaginalis (setting [6]), the “C (Monochoria vaginalis) herbicidal ratio grade” value is 3 (Herbicidal ratio of 40% or more and less than 70%). In addition, the “A (Echinochloa oryzicola Vasing.) herbicidal ratio grade” value in [1] (setting [6]) is 3 (Herbicidal ratio of 40% or more and less than 70%). In addition, the “P (Stellaria media) herbicidal effect” value with Stellaria media is 4 (Herbicidal ratio of 70% or more and less than 90%). Besides, in the data set on Amaranthus retroflexus, the “N (Amaranthus retroflexus) herbicidal effect” value is given as 5 (Herbicidal ratio of 90% or more (almost completely withered)). Moreover, the “b (directly sowed Oryza sativa) effect on crop grade” value in [2] was 3 (Herbicidal ratio of 40% or more and less than 70%). The “E (Cyperus difformis) herbicidal ratio grade” value with Cyperus difformis was 4 (Herbicidal ratio of 70% or more and less than 90%). The “H (Echinochloa crus-galli var. crus-galli) herbicidal ratio grade” value in data set [3] is 5 (Herbicidal ratio of 90% or more (almost completely withered)). In the data set on Leptochloa chinensis, the “D (Leptochloa chinensis) herbicidal ratio grade” value is listed as 5 (Herbicidal ratio of 90% or more (almost completely withered)).
For `Cc1nnc(NC(=O)c2ccc(C(F)(F)F)n3c(CC(=O)OC(C)C)nnc23)o1` [1-049], the “B (Scirpus juncoides) herbicidal ratio grade” value with Scirpus juncoides (setting [6]) is 2 (Herbicidal ratio of 20% or more and less than 40%). Besides, the “C (Monochoria vaginalis) herbicidal ratio grade” value in the data set with Monochoria vaginalis (setting [6]) was 2 (Herbicidal ratio of 20% or more and less than 40%). Besides, the “A (Echinochloa oryzicola Vasing.) herbicidal ratio grade” value in data set [1] (setting [6]) is 4 (Herbicidal ratio of 70% or more and less than 90%). Besides, in the data set with Stellaria media, the “P (Stellaria media) herbicidal effect” value is 4 (Herbicidal ratio of 70% or more and less than 90%). Further, the “N (Amaranthus retroflexus) herbicidal effect” value with Amaranthus retroflexus was 5 (Herbicidal ratio of 90% or more (almost completely withered)). Moreover, the “b (directly sowed Oryza sativa) effect on crop grade” value in [2] was 1 (Herbicidal ratio of 5% or more and less than 20%). The “E (Cyperus difformis) herbicidal ratio grade” value in the data set with Cyperus difformis was 4 (Herbicidal ratio of 70% or more and less than 90%). The “H (Echinochloa crus-galli var. crus-galli) herbicidal ratio grade” value in [3] was 5 (Herbicidal ratio of 90% or more (almost completely withered)). Also, in the data set on Leptochloa chinensis, the “D (Leptochloa chinensis) herbicidal ratio grade” value was 4 (Herbicidal ratio of 70% or more and less than 90%).
For the compound `COc1ccc(-c2nnc3c(C(=O)Nc4nnc(C)o4)ccc(C(F)(F)F)n23)cc1` [1-016], the “B (Scirpus juncoides) herbicidal ratio grade” value in the data set on Scirpus juncoides (setting [6]) is reported as 0 (Herbicidal ratio of 5% or less (almost no effect)). The “C (Monochoria vaginalis) herbicidal ratio grade” value in the data set with Monochoria vaginalis (setting [6]) is on record as 0 (Herbicidal ratio of 5% or less (almost no effect)). Moreover, the “A (Echinochloa oryzicola Vasing.) herbicidal ratio grade” value in data set [1] (setting [6]) was 3 (Herbicidal ratio of 40% or more and less than 70%). For the same compound, the “P (Stellaria media) herbicidal effect” value with Stellaria media is listed as 5 (Herbicidal ratio of 90% or more (almost completely withered)). Further, the “N (Amaranthus retroflexus) herbicidal effect” value in the data set with Amaranthus retroflexus was 5 (Herbicidal ratio of 90% or more (almost completely withered)). For the same compound, the “b (directly sowed Oryza sativa) effect on crop grade” value in [2] was 1 (Herbicidal ratio of 5% or more and less than 20%). The “E (Cyperus difformis) herbicidal ratio grade” value in the data set on Cyperus difformis is reported as 5 (Herbicidal ratio of 90% or more (almost completely withered)). For the same compound, in data set [3], the “H (Echinochloa crus-galli var. crus-galli) herbicidal ratio grade” value was 5 (Herbicidal ratio of 90% or more (almost completely withered)). Moreover, in the data set with Leptochloa chinensis, the “D (Leptochloa chinensis) herbicidal ratio grade” value was 5 (Herbicidal ratio of 90% or more (almost completely withered)).
As to `Cc1nnc(NC(=O)c2ccc(C(F)(F)F)n3c([S+]([O-])C(C)C)nnc23)o1` (stereo not drawn) [1-035], the “B (Scirpus juncoides) herbicidal ratio grade” value in the data set with Scirpus juncoides (setting [6]) is 4 (Herbicidal ratio of 70% or more and less than 90%). In addition, the “C (Monochoria vaginalis) herbicidal ratio grade” value with Monochoria vaginalis (setting [6]) is 4 (Herbicidal ratio of 70% or more and less than 90%). Besides, in [1] (setting [6]), the “A (Echinochloa oryzicola Vasing.) herbicidal ratio grade” value is reported as 5 (Herbicidal ratio of 90% or more (almost completely withered)). For the same compound, the “P (Stellaria media) herbicidal effect” value in the data set on Stellaria media was 5 (Herbicidal ratio of 90% or more (almost completely withered)). For the same compound, the “N (Amaranthus retroflexus) herbicidal effect” value with Amaranthus retroflexus is 5 (Herbicidal ratio of 90% or more (almost completely withered)). Further, the “b (directly sowed Oryza sativa) effect on crop grade” value in data set [2] is 4 (Herbicidal ratio of 70% or more and less than 90%). Besides, the “E (Cyperus difformis) herbicidal ratio grade” value in the data set with Cyperus difformis is reported as 5 (Herbicidal ratio of 90% or more (almost completely withered)). In [3], the “H (Echinochloa crus-galli var. crus-galli) herbicidal ratio grade” value is given as 5 (Herbicidal ratio of 90% or more (almost completely withered)). Also, in the data set with Leptochloa chinensis, the “D (Leptochloa chinensis) herbicidal ratio grade” value is 5 (Herbicidal ratio of 90% or more (almost completely withered)).
Take `Cc1nnc(NC(=O)c2ccc(C(F)(F)F)n3c(CSCC(F)(F)F)nnc23)o1` [1-031]: in the data set on Scirpus juncoides (setting [6]), the “B (Scirpus juncoides) herbicidal ratio grade” value was 2 (Herbicidal ratio of 20% or more and less than 40%). In addition, the “C (Monochoria vaginalis) herbicidal ratio grade” value in the data set on Monochoria vaginalis (setting [6]) is 2 (Herbicidal ratio of 20% or more and less than 40%). Further, the “A (Echinochloa oryzicola Vasing.) herbicidal ratio grade” value in [1] (setting [6]) is 3 (Herbicidal ratio of 40% or more and less than 70%). Besides, the “P (Stellaria media) herbicidal effect” value in the data set with Stellaria media was 4 (Herbicidal ratio of 70% or more and less than 90%). Also, the “N (Amaranthus retroflexus) herbicidal effect” value with Amaranthus retroflexus is 4 (Herbicidal ratio of 70% or more and less than 90%). The “b (directly sowed Oryza sativa) effect on crop grade” value in data set [2] was 2 (Herbicidal ratio of 20% or more and less than 40%). In addition, the “E (Cyperus difformis) herbicidal ratio grade” value in the data set on Cyperus difformis was 3 (Herbicidal ratio of 40% or more and less than 70%). The “H (Echinochloa crus-galli var. crus-galli) herbicidal ratio grade” value in data set [3] is listed as 5 (Herbicidal ratio of 90% or more (almost completely withered)). Moreover, in the data set on Leptochloa chinensis, the “D (Leptochloa chinensis) herbicidal ratio grade” value is 4 (Herbicidal ratio of 70% or more and less than 90%).
For `Cc1nnc(NC(=O)c2ccc(C(F)(F)F)n3c(-c4ccc(Cl)cc4)nnc23)o1` [1-017], the “B (Scirpus juncoides) herbicidal ratio grade” value in the data set on Scirpus juncoides (setting [6]) is 2 (Herbicidal ratio of 20% or more and less than 40%). The “C (Monochoria vaginalis) herbicidal ratio grade” value with Monochoria vaginalis (setting [6]) is reported as 0 (Herbicidal ratio of 5% or less (almost no effect)). Further, in data set [1] (setting [6]), the “A (Echinochloa oryzicola Vasing.) herbicidal ratio grade” value was 2 (Herbicidal ratio of 20% or more and less than 40%). In addition, the “P (Stellaria media) herbicidal effect” value in the data set on Stellaria media is 4 (Herbicidal ratio of 70% or more and less than 90%). Besides, in the data set on Amaranthus retroflexus, the “N (Amaranthus retroflexus) herbicidal effect” value is listed as 5 (Herbicidal ratio of 90% or more (almost completely withered)). Moreover, the “b (directly sowed Oryza sativa) effect on crop grade” value in data set [2] is recorded as 0 (Herbicidal ratio of 5% or less (almost no effect)). Besides, the “E (Cyperus difformis) herbicidal ratio grade” value in the data set on Cyperus difformis is 4 (Herbicidal ratio of 70% or more and less than 90%). Moreover, the “H (Echinochloa crus-galli var. crus-galli) herbicidal ratio grade” value in data set [3] is 4 (Herbicidal ratio of 70% or more and less than 90%). In addition, the “D (Leptochloa chinensis) herbicidal ratio grade” value in the data set on Leptochloa chinensis is 3 (Herbicidal ratio of 40% or more and less than 70%).
In the case of `Cc1nnc(NC(=O)c2ccc(C(F)(F)F)n3c(CC(=O)O)nnc23)o1` [1-048], the “B (Scirpus juncoides) herbicidal ratio grade” value with Scirpus juncoides (setting [6]) was 1 (Herbicidal ratio of 5% or more and less than 20%). In addition, in the data set with Monochoria vaginalis (setting [6]), the “C (Monochoria vaginalis) herbicidal ratio grade” value was 0 (Herbicidal ratio of 5% or less (almost no effect)). Also, the “A (Echinochloa oryzicola Vasing.) herbicidal ratio grade” value in data set [1] (setting [6]) was 0 (Herbicidal ratio of 5% or less (almost no effect)). In the data set with Stellaria media, the “P (Stellaria media) herbicidal effect” value was 4 (Herbicidal ratio of 70% or more and less than 90%). The “N (Amaranthus retroflexus) herbicidal effect” value in the data set on Amaranthus retroflexus was 4 (Herbicidal ratio of 70% or more and less than 90%). Moreover, the “b (directly sowed Oryza sativa) effect on crop grade” value in data set [2] is given as 0 (Herbicidal ratio of 5% or less (almost no effect)). For the same compound, the “E (Cyperus difformis) herbicidal ratio grade” value with Cyperus difformis was 3 (Herbicidal ratio of 40% or more and less than 70%). The “H (Echinochloa crus-galli var. crus-galli) herbicidal ratio grade” value in data set [3] is recorded as 5 (Herbicidal ratio of 90% or more (almost completely withered)). Besides, in the data set on Leptochloa chinensis, the “D (Leptochloa chinensis) herbicidal ratio grade” value was 4 (Herbicidal ratio of 70% or more and less than 90%).
